Source: patent publication US20200253877A1, “GEMCABENE, PHARMACEUTICALLY ACCEPTABLE SALTS THEREOF, COMPOSITIONS THEREOF AND METHODS OF USE THEREFOR” (NEUROBO PHARMACEUTICALS, INC., priority 2018, published 2020)

System: hepatic mRNA expression in STAM™ mice
Test: Murine STAM model of NASH-HCC: hepatic gene expression by quantitative RT-PCR
Assay type: in vivo, mouse
Conditions: n = 8, STAM mice, normalized to non-treated group
Protocol: A study was performed to evaluate the efficacy of gemcabene calcium salt hydrate Crystal Form 1 having a PSD90 of 52 μm as measured by laser light diffraction, in treating non-alcoholic steatosis hepatitis (NASH) in the murine STAM™ model of NASH-HCC.
Briefly, two-day old neonatal C57BL/6 male mice were administered low-dose streptozotocin (STZ), and were subsequently fed a HFC diet from 4 weeks of age. In this model, the mice typically develop liver steatosis and diabetes, reaching steatohepatitis within 3 weeks, followed by cirrhosis within 8 weeks, and carcinoma within 16 weeks. In the current study, mice were administered daily oral gemcabene calcium salt hydrate Crystal Form 1 starting at week 6 of age and were sacrificed at week 9. […] These STAM™ groups were orally administered from week 6 one of the following: water-vehicle, gemcabene calcium salt hydrate Crystal Form 1 at 30, 100 and 300 mg/kg daily, or telmisartan ([…]®) 10 mg/kg daily. […] All groups were sacrificed at week 9. Vehicle, gemcabene calcium salt hydrate Crystal Form 1, or telmisartan were administered by oral gavage once daily.
Various gene expression markers of liver metabolism were evaluated by Real-Time PCR (RT-PCR) in all mouse groups. Total RNA was extracted from liver samples using RNAiso (Takara Bio, Japan) according to the manufacturer's instructions. […] of RNA was reverse-transcribed using a reaction mixture containing 4.4 mM MgCl2 (F. Hoffmann-La Roche, Switzerland), 40 U RNase inhibitor (Toyobo, Japan), 0.5 mM dNTP (Promega, USA), 6.28 μM random hexamer (Promega), 5×first strand buffer (Promega), 10 mM dithiothreitol (Invitrogen, USA) and 200 U MMLV-RT (Invitrogen) in a final volume of 20 μL. The reaction was carried out for 1 hour at 37° C., followed by 5 minutes at 99° C. Real-time PCR was performed using real-time PCR DICE and SYBR premix Taq (Takara Bio). To calculate the relative mRNA expression level, the expression of each gene was normalized to that of reference gene 36B4 (gene symbol: RplpO). Information of PCR-primer sets is described in Tables 37A-37C. Statistical analyses were performed using the Bonferroni Multiple Comparison Test on GraphPad Prism 6 (GraphPad Software Inc., USA). P values <0.05 were considered statistically significant. Results are expressed as mean±SD.
In order to calculate the relative mRNA expression level, the expression of each gene was normalized to that of the reference gene 36B4 (gene symbol: RplpO). The gene expression levels were measured by quantitative RT-PCR. Results were normalized with values for the vehicle-treated normal group. […] Gemcabene calcium salt hydrate Crystal Form 1 (PSD90=52 μm) modulated the mRNA expression of many hepatic genes that play a significant role in the liver homeostasis and injury.

## CC(C)(CCCCOCCCCC(C)(C)C(=O)O)C(=O)O [gemcabene, 6-(5-carboxy-5-methyl-hexyloxy)-2,2-dimethyl-hexanoic acid]
30 mg/kg
  ACC1 gene expression (mean ± SD): 1.0 ± 0.1
  ACC2 gene expression (mean ± SD): 0.6 ± 0.2
  ADH-4 gene expression (mean ± SD): 0.8 ± 0.2
  ANGPTL3 gene expression (mean ± SD): 0.7 ± 0.2
  ANGPTL4 gene expression (mean ± SD): 2.9 ± 0.5
  ANGPTL8 gene expression (mean ± SD): 0.3 ± 0.1
  ApoC-III gene expression (mean ± SD): 0.7 ± 0.1
  CCR2 gene expression (mean ± SD): 3.3 ± 1.0
  CCR5 gene expression (mean ± SD): 2.4 ± 0.9
  CRP gene expression (mean ± SD): 0.9 ± 0.2
  CXCL1/KC gene expression (mean ± SD): 0.8 ± 0.4
  Fetuin-A gene expression (mean ± SD): 1.1 ± 0.4
  IL-1β gene expression (mean ± SD): 1.0 ± 0.5
  IL-6 gene expression (mean ± SD): 4.6 ± 4.7
  LDL receptor gene expression (mean ± SD): 0.9 ± 0.2
  LPL gene expression (mean ± SD): 3.8 ± 0.9
  MCP-1 gene expression (mean ± SD): 3.2 ± 1.5
  MIP-1β gene expression (mean ± SD): 5.4 ± 3.2
  MMP-2 gene expression (mean ± SD): 1.7 ± 0.5
  NF-κB gene expression (mean ± SD): 1.3 ± 0.2
  PNPLA3 gene expression (mean ± SD): 0.3 ± 0.1
  SCD1 gene expression (mean ± SD): 0.2 ± 0.1
  SREBP-1 gene expression (mean ± SD): 0.9 ± 0.2
  Sulf-2 gene expression (mean ± SD): 5.1 ± 1.1
  TIMP-1 gene expression (mean ± SD): 9.9 ± 4.9
  TNF-α gene expression (mean ± SD): 4.0 ± 1.8
  α-SMA gene expression (mean ± SD): 2.6 ± 0.6
100 mg/kg
  ACC1 gene expression (mean ± SD): 0.7 ± 0.1
  ACC2 gene expression (mean ± SD): 0.4 ± 0.1
  ADH-4 gene expression (mean ± SD): 0.6 ± 0.1
  ANGPTL3 gene expression (mean ± SD): 0.4 ± 0.1
  ANGPTL4 gene expression (mean ± SD): 1.6 ± 0.3
  ANGPTL8 gene expression (mean ± SD): 0.4 ± 0.1
  ApoC-III gene expression (mean ± SD): 0.5 ± 0.0
  CCR2 gene expression (mean ± SD): 1.6 ± 0.4
  CCR5 gene expression (mean ± SD): 1.4 ± 0.3
  CRP gene expression (mean ± SD): 0.6 ± 0.1
  CXCL1/KC gene expression (mean ± SD): 0.2 ± 0.1
  Fetuin-A gene expression (mean ± SD): 0.7 ± 0.1
  IL-1β gene expression (mean ± SD): 1.1 ± 0.5
  IL-6 gene expression (mean ± SD): 0.9 ± 0.3
  LDL receptor gene expression (mean ± SD): 0.9 ± 0.2
  LPL gene expression (mean ± SD): 7.4 ± 0.9
  MCP-1 gene expression (mean ± SD): 1.7 ± 0.7
  MIP-1β gene expression (mean ± SD): 2.3 ± 0.9
  MMP-2 gene expression (mean ± SD): 0.5 ± 0.2
  NF-κB gene expression (mean ± SD): 0.9 ± 0.1
  PNPLA3 gene expression (mean ± SD): 0.2 ± 0.1
  SCD1 gene expression (mean ± SD): 0.3 ± 0.1
  SREBP-1 gene expression (mean ± SD): 0.9 ± 0.2
  Sulf-2 gene expression (mean ± SD): 3.8 ± 0.7
  TIMP-1 gene expression (mean ± SD): 3.8 ± 1.6
  TNF-α gene expression (mean ± SD): 2.0 ± 0.8
  α-SMA gene expression (mean ± SD): 2.4 ± 0.9
300 mg/kg
  ACC1 gene expression (mean ± SD): 0.8 ± 0.1
  ACC2 gene expression (mean ± SD): 0.5 ± 0.1
  ADH-4 gene expression (mean ± SD): 0.5 ± 0.1
  ANGPTL3 gene expression (mean ± SD): 0.4 ± 0.1
  ANGPTL4 gene expression (mean ± SD): 1.7 ± 0.3
  ANGPTL8 gene expression (mean ± SD): 0.2 ± 0.1
  ApoC-III gene expression (mean ± SD): 0.4 ± 0.1
  CCR2 gene expression (mean ± SD): 1.7 ± 0.7
  CCR5 gene expression (mean ± SD): 1.3 ± 0.3
  CRP gene expression (mean ± SD): 0.5 ± 0.1
  CXCL1/KC gene expression (mean ± SD): 0.2 ± 0.1
  Fetuin-A gene expression (mean ± SD): 0.7 ± 0.1
  IL-1β gene expression (mean ± SD): 0.7 ± 0.3
  IL-6 gene expression (mean ± SD): 0.6 ± 0.2
  LDL receptor gene expression (mean ± SD): 0.8 ± 0.1
  LPL gene expression (mean ± SD): 6.9 ± 1.1
